Data as given in US20250353873A1, “COMPOUNDS AND METHODS FOR MODULATING APOE EXPRESSION” (Ionis Pharmaceuticals, Inc., priority 2024, published 2025).
pIC50: −log10 of the molar value. Strand notation (5' to 3'): a small letter for the sugar, then the base; units joined by * are phosphorothioate-linked, units joined directly phosphodiester-linked; [ ] holds rarer units or linkages, { } end groups; capitals alone tell only the bases. [ms] = mesyl phosphoramidate linkage; e = 2'-O-(2-methoxyethyl) (MOE); k = constrained ethyl (cEt); [5mC] = 5-methylcytosine; d = 2'-deoxy (DNA)

Legend:
human APOE RNA [1] = assay: Activity in APOE C57BL/6NTac-Apoeem7250 knock-in mice, single ICV bolus, 20 weeks (Example 13); assay type: in vivo; conditions: single ICV bolus 300 μg, 20 weeks post treatment, normalized to mouse Ppia
Method: Modified oligonucleotides described above were tested in the APOE C57BL/6NTac-Apoeem7250 knock-in mouse model described above.
APOE C57BL/6NTac-Apoeem7250 knock-in mice were divided into groups of 4 mice each. Each mouse received a single ICV bolus of 300 μg of modified oligonucleotide. A group of 2-4 mice received a single ICV bolus with PBS as a negative control.
Twenty weeks post treatment, mice were sacrificed and RNA was extracted from cortical brain tissue and spinal cord for quantitative real-time RT-PCR analysis of RNA expression of APOE using human primer probe set RTS3073 (described herein above). APOE RNA levels were normalized to mouse Ppia. Mouse Ppia was amplified using primer probe set m_cyclo24 (described herein above). Results are presented as percent human APOE RNA relative to the amount of human APOE RNA in PBS treated animals, (% control). Each experiment is identified in separate tables below.

human APOE RNA [2] = assay: Dose-dependent inhibition of human APOE RNA in HepG2 cells, electroporation, 50,000 cells per well, RT-PCR normalized to GAPDH (Example 4, Tables 8-10); assay type: cell-based; conditions: HepG2, electroporation, 16-hour treatment
Summary of the method: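 HepG2 cells, 50,000 per well, electroporated with modified oligonucleotide at various concentrations. APOE RNA quantified by RT-PCR with human primer probe set RTS3073, normalized to GAPDH. Values are percent APOE RNA relative to untreated control cells.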

| Substance | APOE RNA (% control) Cortex (human APOE RNA [1]) [% control] | APOE RNA (% control) Spinal Cord (human APOE RNA [1]) [% control] | APOE RNA (% UTC) (human APOE RNA [2]; 5 nM) | APOE RNA (% UTC) (human APOE RNA [2]; 13 nM) | APOE RNA (% UTC) (human APOE RNA [2]; 33 nM) | APOE RNA (% UTC) (human APOE RNA [2]; 82 nM) | APOE RNA (% UTC) (human APOE RNA [2]; 205 nM) | APOE RNA (% UTC) (human APOE RNA [2]; 512 nM) | APOE RNA (% UTC) (human APOE RNA [2]; 1,280 nM) | APOE RNA (% UTC) (human APOE RNA [2]; 3,200 nM) | APOE RNA (% UTC) (human APOE RNA [2]; 8,000 nM) | APOE RNA (% UTC) (human APOE RNA [2]; 20,000 nM) | pIC50 (human APOE RNA [2]) |
| --- | --- | --- | --- | --- | --- | --- | --- | --- | --- | --- | --- | --- | --- |
| 1757559: mixed MOE/cEt gapmer TTGGTGAATCTTTATTAA, sugar eeeekddddddddkeeee, linkages soossssssssssooss (eT*eTeGeG*kT*dG*dA*dA*dT*d[5mC]*dT*dT*dT*kAeTeT*eA*eA) [compound 1757559] | 94 | 69 | 90 | 80 | 89 | 87 | 81 | 89 | 60 | 42 | 39 | 25 | 5.51 |
| 1757586 (eT*eTeGeGkT*dG*dA*dA*dT*d[5mC]*dT*dT*dT*dA*dT*kTkAeA*eA*e[5mC]; antisense) [Compound 1757586] | 88 | 83 | 202 | 246 | 52 | 157 | 129 | 34 | 27 | 20 | 19 | – | 6.30 |
| 1757582 (eT*eTeGkGkT*dG*dA*dA*dT*d[5mC]*dT*dT*dT*dA*dT*eTeAeA*eA*e[5mC]; antisense) [Compound 1757582] | 62 | 44 | 87 | 107 | 72 | 92 | 70 | 64 | 29 | 12 | 37 | 9 | 6.15 |
| 1757584 (eT*eTeGeGeT*dG*dA*dA*dT*d[5mC]*dT*dT*dT*dA*dT*kTkAeA*eA*e[5mC]; antisense) [Compound 1757584] | 92 | 95 | – | – | – | – | – | – | – | – | – | – | – |
| 1779701 (e[5mC]*eTeT*kG*kG*dT[ms]dG[ms]dA[ms]dA[ms]dT*d[5mC]*dT*dT*dT*dA[ms]dT*eT*eA*eA*eA; antisense) [Compound 1779701] | 56 | 24 | – | – | – | – | – | – | – | – | – | – | – |
| 1757583 (eT*eTeGeGeT*dG*dA*dA*dT*d[5mC]*dT*dT*dT*dA*dT*kTeAeA*eA*e[5mC]; antisense) [Compound 1757583] | 97 | 100 | – | – | – | – | – | – | – | – | – | – | – |
| 1779970 (e[5mC]*eTeTkG*kG*eT*dG[ms]dA[ms]dA*dT*d[5mC]*dT*dT*dT*dA*dT*eT*eA*eA*eA; antisense) [Compound 1779970] | 63 | 35 | – | – | – | – | – | – | – | – | – | – | – |
